Molecular target: T1, EED (Homo sapiens, UniProt O75530)
T1 construct: 2×10^5 Hela cells were injected into a 12-well plate; endogenous in cells; host or cells: HeLa
Assay: EED Proteolytic Activity Evaluation 2 (western blot, Hela cells)
Type: cell-based
Settings: 1 nM, 10 nM, 100 nM and 1000 nM, 20 hours of treatment
Protocol: [Experiment 2] EED Proteolytic Activity Evaluation 2
In order to evaluate the EED proteolytic activity of the compound according to the present invention, an experiment was conducted as follows.
Specifically, 2×10^5 Hela cells were injected into a 12-well plate, and after 8 hours of stabilization, each well was treated with the example compounds to have final concentrations of 1 nM, 10 nM, 100 nM, and 1000 nM. One well was treated with the volume of DMSO contained in the sample corresponding to the highest concentration in the experimental group. After 20 hours of treatment, the cells were collected and lysed using 80 μl of SDS Lysis buffer (50 mM Tris pH8.0, 1% SDS, 1 mM EDTA, 0.5 mM PMSF, and protease inhibitor cocktail) and then sonication (30 sec on/59 sec off), 5 cycles) to prepare a cell lysate, followed by protein quantification through BCA, followed by Western blot, and the results are shown in Table 3. (Maximum EED degradation rate: A: >50%, B: 25-50%, C: <25%)

T1 sequence (O75530 whole entry): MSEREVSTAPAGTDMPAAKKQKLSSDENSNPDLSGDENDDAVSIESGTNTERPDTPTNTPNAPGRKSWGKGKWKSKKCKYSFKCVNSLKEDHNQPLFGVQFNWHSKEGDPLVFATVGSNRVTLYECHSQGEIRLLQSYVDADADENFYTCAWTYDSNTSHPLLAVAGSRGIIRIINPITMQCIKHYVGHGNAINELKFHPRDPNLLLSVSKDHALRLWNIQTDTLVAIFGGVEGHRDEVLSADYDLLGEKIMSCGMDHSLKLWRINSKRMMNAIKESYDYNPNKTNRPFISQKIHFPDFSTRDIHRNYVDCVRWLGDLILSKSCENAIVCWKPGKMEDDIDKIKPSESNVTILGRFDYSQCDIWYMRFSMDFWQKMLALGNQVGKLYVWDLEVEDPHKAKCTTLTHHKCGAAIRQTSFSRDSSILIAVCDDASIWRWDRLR

Row | SMILES | EED degradation rate (Maximum EED degradation rate)
1 | O=C(CNc1ccc2nnn(C3CCC(=O)NC3=O)c(=O)c2c1)NCCOCCOCCN1CCC(n2cc(-c3cnc(NCc4ccco4)n4cnnc34)cn2)CC1 (centres unmarked) [Example 130, 2-((3-(2,6-dioxopiperidin-3-yl)-4-oxo-3,4-dihydrobenzo[d][1,2,3]triazin-6-yl)amino)-N-(2-(2-(2-(4-(4-(5-((furan-2-ylmethyl)amino)-[1,2,4]triazolo[4,3-c]pyrimidin-8-yl)-1H-pyrazol-1-yl)piperidin-1-yl)ethoxy)ethoxy)ethyl)acetamide] | C (C: <25%)
2 | Cc1cccc(F)c1CN1C[C@H](c2ccc(N3CCN(C(=O)CCC4CCN(C(=O)COc5cccc6c5C(=O)N(C5CCC(=O)NC5=O)C6=O)CC4)CC3)cc2)[C@@H](N(C)C)C1 (stereo partly drawn) [Example 148, 4-(2-(4-(3-(4-(4-((3S,4R)-4-(dimethylamino)-1-(2-fluoro-6-methylbenzyl)pyrrolidin-3-yl)phenyl)piperazin-1-yl)-3-oxopropyl)piperidin-1-yl)-2-oxoethoxy)-2-(2,6-dioxopiperidin-3-yl)isoindolin-1,3-dione] | A (A: >50%)
3 | Cc1cccc(F)c1CN1C[C@H](c2ccc(N3CCN(C(=O)CC4CCN(C(=O)CNc5cccc6c5C(=O)N(C5CCC(=O)NC5=O)C6=O)CC4)CC3)cc2)[C@@H](N(C)C)C1 (stereo partly drawn) [Example 144, 4-((2-(4-(2-(4-(4-((3S,4R)-4-(dimethylamino)-1-(2-fluoro-6-methylbenzyl)pyrrolidin-3-yl)phenyl)piperazin-1-yl)-2-oxoethyl)piperidin-1-yl)-2-oxoethyl)amino)-2-(2,6-dioxopiperidin-3-yl)isoindolin-1,3-dione] | A (A: >50%)
4 | O=C1CCC(n2nnc3ccc(NCC(=O)N4CCC(CN5CCC(n6cc(-c7cnc(NCc8ccco8)n8cnnc78)cn6)CC5)CC4)cc3c2=O)C(=O)N1 (centres unmarked) [Example 128, 3-(6-((2-(4-((4-(4-(5-((furan-2-ylmethyl)amino)-[1,2,4]triazolo[4,3-c]pyrimidin-8-yl)-1H-pyrazol-1-yl)piperidin-1-yl)methyl)piperidin-1-yl)-2-oxoethyl)amino)-4-oxobenzo[d][1,2,3]triazin-3 (4H)-yl)piperidin-2,6-dione] | C (C: <25%)
5 | Cc1cccc(F)c1CN1C[C@H](c2ccc(N3CCN(CC4CCN(c5cccc6c5C(=O)N(C5CCC(=O)NC5=O)C6=O)CC4)CC3)cc2)[C@@H](N(C)C)C1 (stereo partly drawn) [Example 139, 4-(4-((4-(4-((3S,4R)-4-(dimethylamino)-1-(2-fluoro-6-methylbenzyl)pyrrolidin-3-yl)phenyl)piperazin-1-yl)methyl)piperidin-1-yl)-2-(2,6-dioxopiperidin-3-yl)isoindolin-1,3-dione] | C (C: <25%)
6 | O=C1CCC(N2C(=O)c3ccc(NCC(=O)N4CCC(CN5CCC(n6cc(-c7cnc(NCc8ccco8)n8cnnc78)cn6)CC5)CC4)cc3C2=O)C(=O)N1 (centres unmarked) [Example 127, 2-(2,6-dioxopiperidin-3-yl)-5-((2-(4-((4-(4-(5-((furan-2-ylmethyl)amino)-[1,2,4]triazolo[4,3-c]pyrimidin-8-yl)-1H-pyrazol-1-yl)piperidin-1-yl)methyl)piperidin-1-yl)-2-oxoethyl)amino)isoindolin-1,3-dione] | C (C: <25%)
7 | Cc1cccc(F)c1CN1C[C@H](c2ccc(N3CCN(CCC4CCN(C(=O)COc5cccc6c5C(=O)N(C5CCC(=O)NC5=O)C6=O)CC4)CC3)cc2)[C@@H](N(C)C)C1 (stereo partly drawn) [Example 151, 4-(2-(4-(2-(4-(4-((3S,4R)-4-(dimethylamino)-1-(2-fluoro-6-methylbenzyl)pyrrolidin-3-yl)phenyl)piperazin-1-yl)ethyl)piperidin-1-yl)-2-oxoethoxy)-2-(2,6-dioxopiperidin-3-yl)isoindolin-1,3-dione] | A (A: >50%)
8 | Cc1cccc(F)c1CN1C[C@H](c2ccc(N3CCN(C(=O)CCC4CCN(c5cccc6c5C(=O)N(C5CCC(=O)NC5=O)C6=O)CC4)CC3)cc2)[C@@H](N(C)C)C1 (stereo partly drawn) [Example 141, 4-(4-(3-(4-(4-((3S,4R)-4-(dimethylamino)-1-(2-fluoro-6-methylbenzyl)pyrrolidin-3-yl)phenyl)piperazin-1-yl)-3-oxopropyl)piperidin-1-yl)-2-(2,6-dioxopiperidin-3-yl)isoindolin-1,3-dione] | B (B: 25-50%)

Results, then the molecule that gave them:

Row | EED degradation rate (Maximum EED degradation rate) | SMILES
9 | B (B: 25-50%) | Cc1cccc(F)c1CN1C[C@H](c2ccc(N3CCN(C(=O)CC4CCN(C(=O)COc5ccc6c(c5)C(=O)N(C5CCC(=O)NC5=O)C6=O)CC4)CC3)cc2)[C@@H](N(C)C)C1 (stereo partly drawn) [Example 145, 5-(2-(4-(2-(4-(4-((3S,4R)-4-(dimethylamino)-1-(2-fluoro-6-methylbenzyl)pyrrolidin-3-yl)phenyl)piperazin-1-yl)-2-oxoethyl)piperidin-1-yl)-2-oxoethoxy)-2-(2,6-dioxopiperidin-3-yl)isoindolin-1,3-dione]
10 | A (A: >50%) | Cc1cccc(F)c1CN1C[C@H](c2ccc(N3CCN(CCC4CCN(C(=O)CNc5ccc6c(c5)C(=O)N(C5CCC(=O)NC5=O)C6=O)CC4)CC3)cc2)[C@@H](N(C)C)C1 (stereo partly drawn) [Example 136, 5-((2-(4-(2-(4-(4-((3S,4R)-4-(dimethylamino)-1-(2-fluoro-6-methylbenzyl)pyrrolidin-3-yl)phenyl)piperazin-1-yl)ethyl)piperidin-1-yl)-2-oxoethyl)amino)-2-(2,6-dioxopiperidin-3-yl)isoindolin-1,3-dione]
11 | A (A: >50%) | Cc1cccc(F)c1CN1C[C@H](c2ccc(N3CCN(C(=O)COCCOCCNC(=O)CNc4ccc5c(c4)C(=O)N(C4CCC(=O)NC4=O)C5=O)CC3)cc2)[C@@H](N(C)C)C1 (stereo partly drawn) [Example 121, N-(2-(2-(2-(4-(4-((3S,4R)-4-(dimethylamino)-1-(2-fluoro-6-methylbenzyl)pyrrolidin-3-yl)phenyl)piperazin-1-yl)-2-oxoethoxy)ethoxy)ethyl)-2-((2-(2,6-dioxopiperidin-3-yl)-1,3-dioxoisoindolin-5-yl)amino)acetamide]
12 | B (B: 25-50%) | Cc1cccc(F)c1CN1C[C@H](c2ccc(N3CCN(C(=O)CCCCCCCNc4ccc5c(c4)C(=O)N(C4CCC(=O)NC4=O)C5=O)CC3)cc2)[C@@H](N(C)C)C1 (stereo partly drawn) [Example 126, 5-((8-(4-(4-((3S,4R)-4-(dimethylamino)-1-(2-fluoro-6-methylbenzyl)pyrrolidin-3-yl)phenyl)piperazin-1-yl)-8-oxooctyl)amino)-2-(2,6-dioxopiperidin-3-yl)isoindolin-1,3-dione]
13 | A (A: >50%) | Cc1cccc(F)c1CN1C[C@H](c2ccc(N3CCN(C(=O)COCCOCCOCCNC(=O)CNc4ccc5c(c4)C(=O)N(C4CCC(=O)NC4=O)C5=O)CC3)cc2)[C@@H](N(C)C)C1 (stereo partly drawn) [Example 122, N-(2-(2-(2-(2-(4-(4-((3S,4R)-4-(dimethylamino)-1-(2-fluoro-6-methylbenzyl)pyrrolidin-3-yl)phenyl)piperazin-1-yl)-2-oxoethoxy)ethoxy)ethoxy)ethyl)-2-((2-(2,6-dioxopiperidin-3-yl)-1,3-dioxoisoindolin-5-yl)amino)acetamide]
14 | B (B: 25-50%) | Cc1cccc(F)c1CN1C[C@H](c2ccc(N3CCN(C(=O)CCCCCNc4ccc5c(c4)C(=O)N(C4CCC(=O)NC4=O)C5=O)CC3)cc2)[C@@H](N(C)C)C1 (stereo partly drawn) [Example 138, 5-((6-(4-(4-((3S,4R)-4-(dimethylamino)-1-(2-fluoro-6-methylbenzyl)pyrrolidin-3-yl)phenyl)piperazin-1-yl)-6-oxohexyl)amino)-2-(2,6-dioxopiperidin-3-yl)isoindolin-1,3-dione]
15 | A (A: >50%) | Cc1cccc(F)c1CN1C[C@H](c2ccc(N3CCN(C(=O)CCC4CCN(C(=O)CNc5ccc6c(c5)C(=O)N(C5CCC(=O)NC5=O)C6=O)CC4)CC3)cc2)[C@@H](N(C)C)C1 (stereo partly drawn) [Example 140, 5-((2-(4-(3-(4-(4-((3S,4R)-4-(dimethylamino)-1-(2-fluoro-6-methylbenzyl)pyrrolidin-3-yl)phenyl)piperazin-1-yl)-3-oxopropyl)piperidin-1-yl)-2-oxoethyl)amino)-2-(2,6-dioxopiperidin-3-yl)isoindolin-1,3-dione]
16 | A (A: >50%) | Cc1cccc(F)c1CN1C[C@H](c2ccc(N3CCN(C(=O)CC4CCN(C(=O)CNc5ccc6c(c5)C(=O)N(C5CCC(=O)NC5=O)C6=O)CC4)CC3)cc2)[C@@H](N(C)C)C1 (stereo partly drawn) [Example 146, 5-((2-(4-(2-(4-(4-((3S,4R)-4-(dimethylamino)-1-(2-fluoro-6-methylbenzyl)pyrrolidin-3-yl)phenyl)piperazin-1-yl)-2-oxoethyl)piperidin-1-yl)-2-oxoethyl)amino)-2-(2,6-dioxopiperidin-3-yl)isoindolin-1,3-dione]
17 | A (A: >50%) | Cc1cccc(F)c1CN1C[C@H](c2ccc(N3CCN(C(=O)CC4CCN(C(=O)COc5cccc6c5C(=O)N(C5CCC(=O)NC5=O)C6=O)CC4)CC3)cc2)[C@@H](N(C)C)C1 (stereo partly drawn) [Example 143, 4-(2-(4-(2-(4-(4-((3S,4R)-4-(dimethylamino)-1-(2-fluoro-6-methylbenzyl)pyrrolidin-3-yl)phenyl)piperazin-1-yl)-2-oxoethyl)piperidin-1-yl)-2-oxoethoxy)-2-(2,6-dioxopiperidin-3-yl)isoindolin-1,3-dione]

Reference: patent publication US20220105188A1, “TARGET PROTEIN EED DEGRADATION-INDUCING DEGRADUCER, PREPARATION METHOD THEREOF, AND PHARMACEUTICAL COMPOSITION FOR PREVENTING OR TREATING DISEASES RELATED TO EED, EZH2, OR PRC2, COMPRISING SAME AS ACTIVE INGREDIENT” (KOREA RESEARCH INSTITUTE OF CHEMICAL TECHNOLOGY, priority 2019, published 2022)
